# Target: T1, GPR105 (Homo sapiens, UniProt Q15391)
# T1 construct: gene P2RY14
# T1 sequence (Q15391 1-338): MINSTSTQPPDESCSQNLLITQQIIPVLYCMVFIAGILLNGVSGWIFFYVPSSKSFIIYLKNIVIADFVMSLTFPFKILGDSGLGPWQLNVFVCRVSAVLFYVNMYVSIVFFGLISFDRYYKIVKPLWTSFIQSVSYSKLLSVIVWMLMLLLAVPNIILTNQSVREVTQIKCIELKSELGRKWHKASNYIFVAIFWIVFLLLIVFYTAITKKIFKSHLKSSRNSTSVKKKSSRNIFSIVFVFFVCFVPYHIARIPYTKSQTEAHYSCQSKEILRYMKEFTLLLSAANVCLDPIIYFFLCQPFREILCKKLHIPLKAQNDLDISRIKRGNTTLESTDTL
# Experiment: cAMP-Glo luminescence assay in HEK293-hGPR105 cells (forskolin plus UDPG stimulated), antagonism
# Assay type: cell-based
smiles,measurement,value
"C/C=C/C#CC#C[C@@H](O)[C@@H](/C=C/CCCO)O[C@@H]1O[C@H](CO)[C@@H](O)[C@H](O)[C@H]1O [LBT, lobetyolin]",IC50,5.1 µM

# Reference: publication PMC9005804, “GPR105-Targeted Therapy Promotes Gout Resolution as a Switch Between NETosis and Apoptosis of Neutrophils” (Frontiers in Immunology, 2022)
